Measurements reported in patent US6008041A, “Bovine dipeptidylaminopeptidase 1” (Eli Lilly and Company, priority 1997, dated 1999).
Peptide text beside a SMILES is read from it. * marks the point of attachment. pNA = O=[N+]([O-])c1ccc(N*)cc1; βNA = c1ccc2cc(N*)ccc2c1; Cbz = O=C(OCc1ccccc1)*

What was measured:
[1] = system: bDAP 1; experiment: pH dependence of GRpNA cleavage; type: biochemical, bovine; details: below pH 2.5 or above pH 5
Experimental: Four mM GRpNA was prepared in 50 mM acetic acid, 50 mM glycine buffer, pH 5. HCl or NaOH was used to achieve a variety of pHs, from 5.1 to 2.3. To 180 ul of the above pH buffered substrate was added 5 ul bDAP 1 (49 milliunits/ml final). The rate of increase of absorbance at 410 nm was monitored (using a plate-reader) and the rate of increase was compared with the pH of the reaction solution.

[2] = molecular target: Bovine DAP-I (Bos taurus, UniProt Q3ZCJ8); experiment: Cleavage of RRBNA / Z-RRBNA (fluorescence); type: biochemical; details: 0.25 mM substrate, pH 3.5 or pH 5.0, about 15 milliunit/ml enzyme
Chain of Bovine DAP-I (Q3ZCJ8 25-134): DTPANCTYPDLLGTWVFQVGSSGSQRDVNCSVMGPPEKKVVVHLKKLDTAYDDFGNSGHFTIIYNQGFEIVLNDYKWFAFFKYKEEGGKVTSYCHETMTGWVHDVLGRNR
Chain of Bovine DAP-I (Q3ZCJ8 231-463): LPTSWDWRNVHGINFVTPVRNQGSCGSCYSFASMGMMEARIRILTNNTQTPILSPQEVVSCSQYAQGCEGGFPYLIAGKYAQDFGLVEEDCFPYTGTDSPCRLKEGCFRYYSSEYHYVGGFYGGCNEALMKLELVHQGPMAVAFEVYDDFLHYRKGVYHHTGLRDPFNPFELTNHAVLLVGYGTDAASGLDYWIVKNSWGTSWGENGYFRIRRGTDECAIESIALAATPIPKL
Experimental: (§1) About 0.25 mM RRBNA or 0.25 mM Z-RRBNA was prepared in either 100 mM acetic acid, pH 3.5, or 100 mM citrate buffer, pH 5.0. To 2 ml of substrate was added bDAP 1 or bovine DAP-I (about 15 milliunit/ml solution). Rates of cleavage (monitoring fluorescence increase at 410 nm with excitation at 340 nm) were monitored. […] The pH optimum for cleavage of RRBNA was probed by monitoring the rate of RRBNA cleavage using a buffer system consisting of 50 mM acetic acid and 50 mM citrate. Various pHs were achieved using HCl or NaOH and 1.5 ml volumes were made 2.0 with 0.5 ml of a 1 mM stock solution of RRBNA (final concentration of about 0.25 mM). bDAP 1 was added (to about 15 mU/ml) and the rates of cleavage were determined.

[3] = system: bDAP 1; experiment: Cleavage of RRBNA / Z-RRBNA (fluorescence); type: biochemical, bovine; details: for ability of the enzyme to cleave the substrate: 0.25 mM substrate, pH 3.5 or pH 5.0, about 15 milliunit/ml enzyme
Experimental: as §1

[4] = molecular target: bovine spleen DAP-I (Bos taurus, UniProt Q3ZCJ8); experiment: Inhibition of GFpNA cleavage by sulfhydryl modifying agents; type: biochemical; details: 5 mM inhibitor, 15 minutes at room temperature, pH 7, 100 mM Tris; then diluted 21-fold with 4 mM GFpNA pH 3.5, 37° C., 405 nm; read-out: decrease of rate of cleavage of GFpNA (inhibition)
Chain of bovine spleen DAP-I (Q3ZCJ8 25-134): as the sequence (Q3ZCJ8 25-134) above
Chain of bovine spleen DAP-I (Q3ZCJ8 231-463): as the sequence (Q3ZCJ8 231-463) above
Experimental: (§2) After purification or storage, bDAP 1 enzymatic activity was usually monitored by following the cleavage of the chromogenic substrate GFpNA. Typically the assay was performed by diluting the enzyme at least 11 fold into 1.0 ml of 4 mM GFpNA in 0.05M acetic acid adjusted to pH 3.5. The rate of cleavage of Gly-Phe dipeptide was monitored at 37° C. by measuring the increase in absorbance at 405 nm. One unit of activity leads to a 0.90 OD change per minute under these conditions. Unit/ml estimates can be made assuming an extinction coefficient for free p-nitroanilide (pNA) of 9.9 mM-1 cm-1 at 405 nm.
(§3) The inhibition profile of bDAP 1 toward the substrate GFpNA was compared to that of bovine spleen DAP-I using iodoacetamide and potassium tetrathionate, sulfihydryl modifying agents known to inhibit the activity of bovine spleen DAP-I. Samples of bDAP 1 or bovine spleen DAP-I were incubated for 15 minutes at room temperature in final concentrations of 0, 0.5, 5.0 or 50 mM of either inhibitor at pH 7 in 100 mM Tris buffer. The incubated solutions were then diluted 21-fold with 4 mM GFpNA, pH 3.5. The rate of cleavage was monitored by measuring the increase in absorbance at 405 nm at 37° C. Bovine DAP-I's rate of cleavage of GFpNA was decreased more than 90% by the exposure to 5 mM iodoacetamide and was 95% inhibited by 5 mM potassium tetrathionate.

[5] = system: bDAP 1; experiment: as above; type: biochemical, bovine; details: 0.5, 5.0 or 50 mM inhibitor, 15 minutes at room temperature, pH 7; then 4 mM GFpNA pH 3.5, 37° C.
Experimental: as §2, §3

N=C(N)NCCC[C@H](NC(=O)CN)C(=O)Nc1ccc([N+](=O)[O-])cc1 [GRpNA, Gly-Arg-pNA] (H-Gly-Arg-pNA)
activity outside the optimum range [1]: little activity

N=C(N)NCCC[C@H](NC(=O)OCc1ccccc1)C(=O)N[C@@H](CCCNC(=N)N)C(=O)Nc1ccc2ccccc2c1 [Z-RRBNA, benzyloxycarbonyl-RRBNA] (Cbz-Arg-Arg-βNA)
ability of the enzyme to cleave the substrate [2]: unable to cleave
ability of the enzyme to cleave the substrate [3]: unable to cleave

NC(=O)CI [iodoacetamide]
inhibition at 5000 µM [4]: > 90%
inhibition of GFpNA cleavage [5]: no evidence of significant inhibition

O=S(=O)([O-])SSS(=O)(=O)[O-].[K+].[K+] [potassium tetrathionate]
inhibition of GFpNA cleavage [5]: no evidence of significant inhibition

N=C(N)NCCC[C@H](NC(=O)[C@@H](N)CCCNC(=N)N)C(=O)Nc1ccc2ccccc2c1 [RRBNA, Arg-Arg-β-naphthylamide] (H-Arg-Arg-βNA)
ability of the enzyme to cleave the substrate [2]: unable to cleave
ability of the enzyme to cleave the substrate [3]: able to effectively cleave
activity over the pH range probed ([3]; pH 3.5 to pH 5.7): significant activity
